Assay results published in ChEMBL document CHEMBL5505983, “Design, synthesis, and molecular modeling studies of novel 2-quinolone-1,2,3-triazole-α-aminophosphonates hybrids as dual antiviral and antibacterial agents” (Eur J Med Chem, 2024).
In brackets after ≈: the same amount, converted by molar mass.

Experiments:
Yellow fever virus = assay: Antiviral activity against Yellow fever virus infected in human Huh-7 cells assessed as inhibition of cytopathic effect by microscopy based analysis; format: functional, organism-based
Human rhinovirus sp. [1] = assay: Antiviral activity against Human rhinovirus B14 infected in human HeLa-RH cells assessed as inhibition of cytopathic effect by microscopy based analysis; format: functional, organism-based
Escherichia coli [2] = assay: Antibacterial activity against Escherichia coli CIP 53154 assessed as reduction in bacterial growth by micro-broth dilution method; format: functional
Enterococcus faecalis [3] = assay: Bactericidal activity against Enterococcus faecalis; format: functional
Staphylococcus aureus [4] = assay: Ratio of MBC to MIC for Staphylococcus aureus CIP 54127; format: functional
[5] = Cytotoxicity against human HeLa-RH cells; format: toxicity, cell-based
Enterococcus faecalis [6] = assay: Antibacterial activity against Enterococcus faecalis assessed as reduction in bacterial growth by micro-broth dilution method; format: functional
Chikungunya virus = assay: Antiviral activity against CHIKV infected in African green monkey Vero A cells assessed as inhibition of cytopathic effect by microscopy based analysis; format: functional, organism-based
Staphylococcus aureus [7] = assay: Antibacterial activity against Staphylococcus aureus CIP 54127 assessed as reduction in bacterial growth by micro-broth dilution method; format: functional
[8] = Selectivity index, ratio of CC50 for African green monkey Vero A cells to IC50 for CHIKV infected in African green monkey Vero A cells; format: toxicity; conditions: read-out: Ratio CC50/IC50
Enterococcus faecalis [9] = assay: Ratio of MBC to MIC for Enterococcus faecalis; format: functional
Escherichia coli [10] = assay: Ratio of MBC to MIC for Escherichia coli CIP 53154; format: functional
Pseudomonas aeruginosa [11] = assay: Bactericidal activity against Pseudomonas aeruginosa CIP A22; format: functional
[12] = Cytotoxicity against human Huh-7 cells; format: toxicity, cell-based
Human rhinovirus sp. [13] = assay: Antiviral activity against Human rhinovirus A2 infected in human HeLa-RH cells assessed as inhibition of cytopathic effect by microscopy based analysis; format: functional, organism-based
Pseudomonas aeruginosa [14] = assay: Ratio of MBC to MIC for Pseudomonas aeruginosa CIP A22; format: functional
[15] = Cytotoxicity against African green monkey Vero E6 cells; format: toxicity, cell-based, Vero C1008; conditions: chlorocebus sabaeus
[16] = Cytotoxicity against African green monkey Vero A cells; format: toxicity, cell-based; conditions: chlorocebus sabaeus
Staphylococcus aureus [17] = assay: Bactericidal activity against Staphylococcus aureus CIP 54127; format: functional
Zika virus = assay: Antiviral activity against Zika virus infected in african green monkey Vero E6 cells assessed as inhibition of cytopathic effect by microscopy based analysis; format: functional, organism-based; conditions: Vero C1008
Escherichia coli [18] = assay: Bactericidal activity against Escherichia coli CIP 53154; format: functional
Pseudomonas aeruginosa [19] = assay: Antibacterial activity against Pseudomonas aeruginosa CIP A22 assessed as reduction in bacterial growth by micro-broth dilution method; format: functional
Enterovirus A71 = assay: Antiviral activity against human EV71 infected in human RD cells assessed as inhibition of cytopathic effect by microscopy based analysis; format: functional, organism-based; conditions: Enterovirus A
[20] = Cytotoxicity against human RD cells; format: toxicity, cell-based
[21] = Selectivity index, ratio of CC50 for human Huh-7 cells to IC50 for Yellow fever virus infected in human Huh-7 cells; format: toxicity, cell-based; conditions: read-out: Ratio CC50/IC50

Row | SMILES | IC50 (Yellow fever virus) | IC50 (Human rhinovirus sp. [1]) | MIC (Escherichia coli [2]) | MBC (Enterococcus faecalis [3]) | Ratio (Staphylococcus aureus [4]) | CC50 [5] | MIC (Enterococcus faecalis [6]) | IC50 (Chikungunya virus) | MIC (Staphylococcus aureus [7]) | selectivity ratio [8] | Ratio (Enterococcus faecalis [9]) | Ratio (Escherichia coli [10]) | MBC (Pseudomonas aeruginosa [11]) | CC50 [12] | IC50 (Human rhinovirus sp. [13]) | Ratio (Pseudomonas aeruginosa [14]) | CC50 [15] | CC50 [16] | MBC (Staphylococcus aureus [17]) | IC50 (Zika virus) | other results
1 | CCOP(=O)(OCC)C(Nc1ccc(F)cc1)c1cc(Cn2cc(Cn3c(=O)cc(C)c4cc(Br)ccc43)nn2)ccc1O (configuration not stated) | > 100 µM | > 33.3 µM | 920 µM (≈ 630 µg/mL) | 60 µM (≈ 41.1 µg/mL) | 1 | 20.9 µM | 60 µM (≈ 41.1 µg/mL) | 6.8 µM | 450 µM (≈ 308 µg/mL) | 3.79 | 1 | 1 | 1830 µM (≈ 1250 µg/mL) | 22.2 µM | > 0.41 µM | 1 | > 33.3 µM | 25.8 µM | 450 µM (≈ 308 µg/mL) | > 100 µM | MBC (Escherichia coli [18]): 920 µM (≈ 630 µg/mL); MIC (Pseudomonas aeruginosa [19]): 1830 µM (≈ 1250 µg/mL); IC50 (Enterovirus A71): > 100 µM; CC50 [20]: > 100 µM
2 | CCOP(=O)(OCC)C(Nc1ccccc1OC)c1cc(Cn2cc(Cn3c(=O)cc(C)c4cc(Br)ccc43)nn2)ccc1O (configuration not stated) | > 100 µM | > 100 µM | 900 µM (≈ 627 µg/mL) | 110 µM (≈ 76.6 µg/mL) | 1.96 | > 33.3 µM | 110 µM (≈ 76.6 µg/mL) | 81.6 µM | 230 µM (≈ 160 µg/mL) | > 1.23 | 1 | 1.99 | 3590 µM (≈ 2500 µg/mL) | 51.2 µM | > 0.41 µM | 2.01 | > 100 µM | > 100 µM | 450 µM (≈ 313 µg/mL) | > 100 µM | MBC (Escherichia coli [18]): 1790 µM (≈ 1250 µg/mL); MIC (Pseudomonas aeruginosa [19]): 3590 µM (≈ 2500 µg/mL); IC50 (Enterovirus A71): > 100 µM; CC50 [20]: > 33.3 µM
3 | CCOP(=O)(OCC)C(Nc1ccccc1Br)c1cc(Cn2cc(Cn3c(=O)cc(C)c4ccccc43)nn2)ccc1O (configuration not stated) | 9.94 µM | > 100 µM | 470 µM (≈ 313 µg/mL) | 60 µM (≈ 40 µg/mL) | 1 | 45.7 µM | 60 µM (≈ 40 µg/mL) | 9.4 µM | 120 µM (≈ 80 µg/mL) | 2.49 | 1 | 1 | 3750 µM (≈ 2500 µg/mL) | 30.1 µM | > 1.23 µM | 1.99 | > 100 µM | 23.4 µM | 120 µM (≈ 80 µg/mL) | > 100 µM | selectivity ratio [21]: 3.03; MBC (Escherichia coli [18]): 470 µM (≈ 313 µg/mL); MIC (Pseudomonas aeruginosa [19]): 3750 µM (≈ 2500 µg/mL); IC50 (Enterovirus A71): > 100 µM; CC50 [20]: 70.2 µM
4 | Cc1cc(=O)n(Cc2cn(Cc3ccc(O)c(C=O)c3)nn2)c2ccccc12 | > 100 µM | > 100 µM | 430 µM (≈ 161 µg/mL) | 110 µM (≈ 41.2 µg/mL) | 1 | 11.4 µM | 110 µM (≈ 41.2 µg/mL) | 95.7 µM | 210 µM (≈ 78.6 µg/mL) | > 1.05 | 1 | 1.93 | 26700 µM (≈ 10000 µg/mL) | 37.5 µM | > 1.23 µM | 2 | 57.5 µM | > 100 µM | 210 µM (≈ 78.6 µg/mL) | > 100 µM | MBC (Escherichia coli [18]): 830 µM (≈ 311 µg/mL); MIC (Pseudomonas aeruginosa [19]): 26700 µM (≈ 10000 µg/mL); IC50 (Enterovirus A71): > 33.3 µM; CC50 [20]: 27.1 µM
